Test results: paper PMC5923142, “Selection and Characterization of Rupintrivir-Resistant Norwalk Virus Replicon Cells In Vitro” (Antimicrobial Agents and Chemotherapy, 2018)

Tested on: Norwalk virus replicon
Experiment: Norwalk virus replicon RNA level in HGT-NV cells by qRT-PCR
Assay type: cell-based, Human norovirus (HuNoV) GI
Protocol: A human gastric tumor-1 (HGT-1) cell line ([29]) was used to establish a human norovirus replicon-harboring HGT (HGT-NV) cell line. In brief, viral protein genome (VPg)-linked RNA was isolated from BHK cells containing the Norwalk virus GI replicon and transfected into HGT-1 cells. HGT-NV replicon cells were selected in G418 (1 mg/ml), and limiting dilution was used to identify a clone with high viral RNA levels. The generated HGT-NV replicon cells were grown and maintained under G418 selection. The replicon-containing BHK cell line was generated by the transfection of in vitro-transcribed capped RNA from the cDNA construct of the Norwalk virus replicon ([9]), kindly provided by Kim Green (National Institutes of Health, Bethesda, MD, USA), into baby hamster kidney cells. Human embryonic kidney HEK293T cells were obtained from ATCC. The murine microglial BV-2 cell line was provided by Jennifer Pocock (University College London, London, UK). […]
The inhibitory effect of rupintrivir on HuNoV replication was assessed by quantification of the levels of GI NuNoV RNA and β-actin RNA as the reference gene. […] The real-time quantitative reverse transcription-PCR (qRT-PCR) assay was performed by using a One-Step Plus qRT-PCR kit according to the protocol of the manufacturer (Primer Design). […] Relative quantification was performed using the 2^−ΔΔCT threshold cycle (CT) method ([38]). […]

CCOC(=O)/C=C/[C@H](C[C@@H]1CCNC1=O)NC(=O)[C@@H](CC(=O)[C@@H](NC(=O)c1cc(C)on1)C(C)C)Cc1ccc(F)cc1 [rupintrivir, Rupintrivir]
selectivity index (CC50/EC50) (HGT-NV cells): > 77 | EC50 (Norwalk virus, 72 h, read-out: 50% effective concentration (EC50), replicon RNA): 1.3 ± 0.1 µM
